{"source": "patent US11135309B2", "about": "“Poly(vinyl alcohol) nanocarriers” (THE REGENTS OF THE UNIVERSITY OF CALIFORNIA, priority 2015, dated 2021)", "key": {"[1]": {"experiment": "serum chemistry (hepatic and renal function panel) in the therapeutic study", "format": "in vivo, mice", "conditions": "day 7 after the last dosage", "experimental": "(§1) Tumor bearing mice (n=6-8) were intravenously administered PBS; Velcade® (0.8 mg/kg); BTZ-PVA (0.8, 1.2 mg/kg); DOX (4 mg/kg); DOX-DCMs (4 mg/kg); BTZ 0.8 mg/kg followed by DOX 4 mg/kg 24 h later; or BTZ-PVA 0.8 mg/kg followed by DOX-DCMs 24 h later every four days for a total of 6 doses. Data represent mean±SEM."}, "[2]": {"experiment": "blood cell count after the last dosage in the therapeutic study", "format": "in vivo, mice", "experimental": "as §1"}, "[3]": {"experiment": "cumulative BTZ release in PBS medium", "format": "physicochemical", "conditions": "PBS pH 7.4, within the first 3 h"}, "[4]": {"experiment": "in vitro DOX release from PVA-LA NPs by dialysis", "format": "physicochemical", "conditions": "PBS, within 1 h", "experimental": "Drug release study. DOX-loaded Cr-PVA-LA NPs solution was prepared to determine the in vitro drug release profile. The initial DOX concentration was 1.0 mg/mL, Aliquots of the DOX-loaded Cr-PVA-LA NPs solution were injected into dialysis cartridges with 3.5 kDa MWCO. The cartridges were dialyzed against 100 volume times PBS solution at 37° C. and rotator rate was set to 100 rpm. […] Values were reported as the means for each triplicate samples.\nLoading and Triggered Release of DOX. […] The accumulated release results shown in FIG. 14 represent the total amount of DOX released from different sample. […] More than 50% of DOX were release within 1 h. […] It should be further noted that no burst release was observed even in the presence of NAC. The unique core-shell structure contributes to the constant release rate. This biodegradable PVA-LA NPs is a highly promising approach to controlled drug release."}, "[5]": {"tested_on": "subcutaneous SKOV-3 tumor", "experiment": "phototherapy and tumor response", "format": "in vivo, mice", "description": "Phototherapy and tumor response. Subcutaneous SKOV-3 tumor-bearing mice were used for in vivo therapeutic study when tumor volumes reached 80-120 mm^3 (designate as Day 0). The therapeutic efficacy and toxicity profiles of different PPNs formulations were evaluated. On day 0, all mice were randomly divided into seven groups (n=6). […] The DOX was given at the dose of 2.5 mg/kg, and PPNs was given at the dose of 2 mg/kg, calculated on the porphyrin content. The treatment was given every 5 days on day 0, 5, 10 and 15 for a total 4 doses. […] Tumor size and body weight were measured twice a week. Tumor volume was calculated using the equation (L×W^2)/2, where L is the longest and W is shortest in tumor diameters (mm). For humane reasons, mice were sacrificed when tumor volume reached 1000 mm^3, which was considered as the end point of survival data."}, "[6]": {"experiment": "in vivo toxicity evaluation", "parameters": "species or system mice", "conditions": "5 days after the last dose", "experimental": "Phototherapy and tumor response. Subcutaneous SKOV-3 tumor-bearing mice were used for in vivo therapeutic study when tumor volumes reached 80-120 mm^3 (designate as Day 0). The therapeutic efficacy and toxicity profiles of different PPNs formulations were evaluated. On day 0, all mice were randomly divided into seven groups (n=6). Mice were intravenously administered with PBS, blank PPNs, DOX·HCl and PPNs-DOX. The DOX was given at the dose of 2.5 mg/kg, and PPNs was given at the dose of 2 mg/kg, calculated on the porphyrin content. The treatment was given every 5 days on day 0, 5, 10 and 15 for a total 4 doses. […] Tumor size and body weight were measured twice a week. Tumor volume was calculated using the equation (L×W^2)/2, where L is the longest and W is shortest in tumor diameters (mm). For humane reasons, mice were sacrificed when tumor volume reached 1000 mm^3, which was considered as the end point of survival data. At day 5 after the last dosage, blood samples were collected from each group to test blood cell counts and serum chemistry.\nIn vivo toxicity evaluation. The potential toxicity of PPNs and the related formulations was assessed in all treated mice. The body weight change, blood cell counts and serum chemistry including renal and hepatic function panels were monitored. […]"}, "[7]": {"tested_on": "subcutaneous MDA-MB-231 breast cancer xenografts", "experiment": "in vivo therapeutic study, breast cancer xenograft", "parameters": "species or system nude mice", "conditions": "5 mg/kg intravenous, every four day, 6 doses", "experimental": "In vivo therapeutic study. Subcutaneous MDA-MB-231 breast cancer xenografts were implanted into nude mice as described above. […] On day 0, these mice were randomly divided into three groups, with five mice in each group. […] Tumor volume was calculated by the formula (L×W^2)/2, where L is the longest and W is the shortest in tumor diameters(mm). Anti-tumor efficacy in breast cancer xenograft mouse mode The anti-tumor effects of DOX-PVA-LA NPs after intravenous injection were evaluated in subcutaneous MDA-MB-231 tumor bearing mice."}, "[8]": {"experiment": "in vitro DOX release from PPNs by dialysis", "format": "physicochemical", "conditions": "PBS 37° C., within the first 5 hrs", "description": "In vitro drug release profiles were carried out using the dialysis method. Aliquots of DOX-loaded PPNs solution were injected into a dialysis cartridge with a molecular weight cutoff of 3.5 kDa. The whole dialysis process was carried out at 37° C. with swirling at 70 rpm in the presence of 10 g/L activated charcoal in 1 L PBS buffer. The concentration of DOX remained in the dialysis cartridge at various time points was determined by absorbance measurement."}, "[9]": {"tested_on": "SKOV-3 ovarian cancer cells", "experiment": "cellular uptake (flow cytometry, confocal microscopy)", "format": "cell-based", "experimental": "The uptake profiles of DOX-loaded PPNs in SKOV-3 ovarian cancer cells were qualitatively observed by confocal microscopy. SKOV-3 cells were seeded in an 8-well slide. […] Then the cells were washed thrice with PBS buffer, fixed with 4% paraformaldehyde for 15 min. The nuclei were stained with DAPI. The slides were mounted with coverslips and observed by confocal microscopy.\nThe cellular uptake efficiency of PPNs in SKOV3 ovarian cancer cells was quantified with flow cytometry at different incubation time points (FIG. 19a). […] Additionally, a marked increase in porphyrin fluorescence from PPNs was visualized in the cytoplasm at 6 hrs, compared to that at 30 min after incubation."}}}
{"smiles": "CC(C)C[C@H](NC(=O)[C@H](Cc1ccccc1)NC(=O)c1cnccn1)B(O)O", "note": "[BTZ, [(1R)-3-methyl-1-({(2S)-3-phenyl-2-[(pyrazin-2-ylcarbonyl)amino]propanoyl}amino)butyl] boronic acid]", "values": [{"measurement": "ALT", "setting": "[1]; 0.8 mg/kg", "result": "28.3 ± 3.3", "unit": "U/L"}, {"measurement": "AST", "setting": "[1]; 0.8 mg/kg", "result": "117.1 ± 26.4", "unit": "U/L"}, {"measurement": "BUN", "setting": "[1]; 0.8 mg/kg", "result": "16.3 ± 2.1", "unit": "mg/dL"}, {"measurement": "Creatinine", "setting": "[1]; 0.8 mg/kg", "result": "0.2 ± 0.1", "unit": "mg/dL"}, {"measurement": "Total Bilirubin", "setting": "[1]; 0.8 mg/kg", "result": "0.1 ± 0.0", "unit": "mg/dL"}, {"measurement": "Hemoglobin", "setting": "[2]; 0.8 mg/kg", "result": "14.6 ± 0.6", "unit": "g/dL"}, {"measurement": "Neutrophil cells", "setting": "[2]; 0.8 mg/kg", "result": "0.5 ± 0.4", "unit": "K/μl"}, {"measurement": "Platelets", "setting": "[2]; 0.8 mg/kg", "result": "1424.3 ± 146.2", "unit": "K/μL"}, {"measurement": "RBC", "setting": "[2]; 0.8 mg/kg", "result": "9.2 ± 0.5", "unit": "M/μl"}, {"measurement": "WBC", "setting": "[2]; 0.8 mg/kg", "result": "5.6 ± 1.3", "unit": "K/μl"}, {"measurement": "BTZ released", "setting": "[3]", "result": "about 80%"}]}
{"smiles": "COc1cccc2c1C(=O)c1c(O)c3c(c(O)c1C2=O)C[C@@](O)(C(=O)CO)C[C@@H]3O[C@H]1C[C@H](N)[C@H](O)[C@H](C)O1", "note": "[DOX, doxorubicin]", "values": [{"measurement": "DOX released", "setting": "[4]", "result": "More than 50%"}, {"measurement": "tumor growth compared to PBS control", "setting": "[5]; DOX 2.5 mg/kg iv days 0, 5, 10, 15, without light", "result": "did not exhibit obvious antitumor effect"}, {"measurement": "survival compared to PBS control", "setting": "[5]; without light", "result": "no obvious prolonged survival rate"}, {"measurement": "white blood cell counts", "setting": "[6]", "result": "certain decrease"}, {"measurement": "ALT", "setting": "[1]; 4 mg/kg", "result": "42.6 ± 8.6", "unit": "U/L"}, {"measurement": "AST", "setting": "[1]; 4 mg/kg", "result": "167.7 ± 23.4", "unit": "U/L"}, {"measurement": "BUN", "setting": "[1]; 4 mg/kg", "result": "18.0 ± 2.6", "unit": "mg/dL"}, {"measurement": "Creatinine", "setting": "[1]; 4 mg/kg", "result": "0.2 ± 0.0", "unit": "mg/dL"}, {"measurement": "Total Bilirubin", "setting": "[1]; 4 mg/kg", "result": "0.1 ± 0.0", "unit": "mg/dL"}, {"measurement": "anti-tumor activity compared with PBS control", "setting": "[7]", "result": "significant anti-tumor activity"}, {"measurement": "Hemoglobin", "setting": "[2]; 4 mg/kg", "result": "13.6 ± 0.9", "unit": "g/dL"}, {"measurement": "Neutrophil cells", "setting": "[2]; 4 mg/kg", "result": "0.5 ± 0.2", "unit": "K/μl"}, {"measurement": "Platelets", "setting": "[2]; 4 mg/kg", "result": "1618.2 ± 190.5", "unit": "K/μL"}, {"measurement": "RBC", "setting": "[2]; 4 mg/kg", "result": "8.3 ± 0.5", "unit": "M/μl"}, {"measurement": "WBC", "setting": "[2]; 4 mg/kg", "result": "5.8 ± 1.0", "unit": "K/μl"}, {"measurement": "DOX released", "setting": "[8]", "result": 90, "unit": "%"}, {"measurement": "intracellular localization of DOX fluorescence", "setting": "[9]; 30 min incubation", "result": "could be observed in the nuclei"}, {"measurement": "intracellular localization of DOX fluorescence", "setting": "[9]; 6 hrs incubation", "result": "completely transported into the nuclei"}]}
